Test results as given in patent publication US10766869B2, “Triazoles for the treatment of demyelinating dieases” (Vertex Pharmaceuticals Incorporated, priority 2015, dated 2020).

Tested on: primary rat mixed cortical cells
Assay: In vitro myelination assay (MBP positive myelin strands, fold myelin pixels above background)
Assay type: cell-based
Details: Rattus norvegicus, relative to baseline of no added compound, read-out: Fold myelin pixels above background; for fold induction at 1 µM: 1.0 μM compound; for fold induction at 10 µM: 10.0 μM compound
In short: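 Fourteen-day treatment of primary P1 rat mixed cortical cultures, re-dosed at days 6 and 10, at 1.0 μM and 10.0 μM. MBP immunofluorescence was imaged at 10× and myelin strands quantified by software, normalised to untreated wells as fold above background.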

## Cc1cc(Nc2ncn(-c3cc(F)cc(F)c3)n2)cc(N2CCN(C3CC3)CC2)c1 [Compound 482, N-[3-(4-cyclopropylpiperazin-1-yl)-5-methyl-phenyl]-1-(3,5-difluorophenyl)-1,2,4-triazol-3-amine]
  fold induction at 1 µM: 10 to 100
  fold induction at 10 µM: 100 to 1000

## Cc1cc(Nc2ncn(-c3ccccc3)n2)cc(C2CCN(CC3(C)COC3)CC2)c1 [Compound 483, N-[3-methyl-5-[1-[(3-methyloxetan-3-yl)methyl]-4-piperidyl]phenyl]-1-phenyl-1,2,4-triazol-3-amine]
  fold induction at 1 µM: ≤ 1
  fold induction at 10 µM: ≤ 1

## Cc1cc(Nc2ncn(-c3cc(F)cc(F)c3F)n2)cc(N2CCN(C3COC3)CC2)c1 [Compound 484, N-[3-methyl-5-[4-(oxetan-3-yl)piperazin-1-yl]phenyl]-1-(2,3,5-trifluorophenyl)-1,2,4-triazol-3-amine]
  fold induction at 1 µM: ≤ 1
  fold induction at 10 µM: ≤ 1

## CN1CCN(c2cc(Nc3ncn(-c4ccccc4)n3)cc(C(F)(F)F)c2)CC1 [Compound 486, N-[3-(4-methylpiperazin-1-yl)-5-(trifluoromethyl)phenyl]-1-phenyl-1,2,4-triazol-3-amine]
  fold induction at 1 µM: 100 to 1000
  fold induction at 10 µM: ≤ 1

## Cc1cc(Nc2ncn(-c3cc(F)cc(F)c3)n2)cc([C@]2(O)CCN(C3COC3)C2)c1 [Compound 487, (3R)-3-[3-[[1-(3,5-difluorophenyl)-1,2,4-triazol-3-yl]amino]-5-methyl-phenyl]-1-(oxetan-3-yl)pyrrolidin-3-ol]
  fold induction at 1 µM: 100 to 1000
  fold induction at 10 µM: 1 to 10

## Cc1cc(Nc2ncn(-c3cccc(Cl)n3)n2)cc(N2CCCC2)c1 [Compound 488, 1-(6-chloro-2-pyridyl)-N-(3-methyl-5-pyrrolidin-1-yl-phenyl)-1,2,4-triazol-3-amine]
  fold induction at 1 µM: ≤ 1
  fold induction at 10 µM: ≤ 1

## CCc1cc(Nc2ncn(-c3cnccn3)n2)cc(N2CCN(C3(C)COC3)CC2)c1 [Compound 489, N-[3-ethyl-5-[4-(3-methyloxetan-3-yl)piperazin-1-yl]phenyl]-1-pyrazin-2-yl-1,2,4-triazol-3-amine]
  fold induction at 1 µM: 10 to 100
  fold induction at 10 µM: 10 to 100

## COC[C@H]1CCCN1c1cc(F)cc(-n2cnc(Nc3cc(C)cc(N4CCN(C5COC5)CC4)c3)n2)c1 [Compound 491, 1-[3-fluoro-5-[(2R)-2-(methoxymethyl)pyrrolidin-1-yl]phenyl]-N-[3-methyl-5-[4-(oxetan-3-yl)piperazin-1-yl]phenyl]-1,2,4-triazol-3-amine]
  fold induction at 1 µM: 100 to 1000
  fold induction at 10 µM: ≤ 1

## Fc1ccc(-n2cnc(Nc3cc(C4CC4)nc(N4CC[C@H](F)C4)c3)n2)cc1F [Compound 492, 2-cyclopropyl-N-[1-(3,4-difluorophenyl)-1,2,4-triazol-3-yl]-6-[(3S)-3-fluoropyrrolidin-1-yl]pyridin-4-amine]
  fold induction at 1 µM: 1000 to 10000
  fold induction at 10 µM: 1000 to 10000

## Cc1cc(Nc2ncn(-c3cc(F)cc(F)c3)n2)cc(N2CC(CO)C2)c1 [Compound 493, [1-[3-[[1-(3,5-difluorophenyl)-1,2,4-triazol-3-yl]amino]-5-methyl-phenyl]azetidin-3-yl]methanol]
  fold induction at 10 µM: ≤ 1

## COC1CN(c2cc(F)cc(-n3cnc(Nc4cc(C5CC5)cc(N5CCN(C6COC6)CC5)c4)n3)c2)C1 [Compound 494, N-[3-cyclopropyl-5-[4-(oxetan-3-yl)piperazin-1-yl]phenyl]-1-[3-fluoro-5-(3-methoxyazetidin-1-yl)phenyl]-1,2,4-triazol-3-amine]
  fold induction at 1 µM: 100 to 1000
  fold induction at 10 µM: 10 to 100

## Cc1cc(Nc2ncn(-c3ccnc(N4CCCCCC4)c3)n2)cc(N2CCN(C)CC2)c1 [Compound 495, 1-[2-(azepan-1-yl)-4-pyridyl]-N-[3-methyl-5-(4-methylpiperazin-1-yl)phenyl]-1,2,4-triazol-3-amine]
  fold induction at 10 µM: ≤ 1

## Cc1cc(NCCC2CCCO2)cc(Nc2ncn(-c3cc(F)cc(F)c3)n2)c1 (stereo not drawn) [Compound 496, N1-[1-(3,5-difluorophenyl)-1,2,4-triazol-3-yl]-5-methyl-N3-(2-tetrahydrofuran-2-ylethyl)benzene-1,3-diamine]
  fold induction at 1 µM: 100 to 1000
  fold induction at 10 µM: 1 to 10

## Fc1cc(Nc2ncn(-c3ccc(F)cc3F)n2)cc(N2CCCC2)c1 [Compound 497, 1-(2,4-difluorophenyl)-N-(3-fluoro-5-pyrrolidin-1-yl-phenyl)-1,2,4-triazol-3-amine]
  fold induction at 1 µM: ≤ 1
  fold induction at 10 µM: ≤ 1

## Fc1ccc(-n2cnc(Nc3cc(C4CC4)nc(N4CC[C@@H](F)C4)c3)n2)cc1F [Compound 498, 2-cyclopropyl-N-[1-(3,4-difluorophenyl)-1,2,4-triazol-3-yl]-6-[(3R)-3-fluoropyrrolidin-1-yl]pyridin-4-amine]
  fold induction at 1 µM: 100 to 1000
  fold induction at 10 µM: 100 to 1000

## Cc1cc(Nc2ncn(-c3cccc(C#N)c3)n2)cc(N2CCN(C)CC2)c1 [Compound 499, 3-[3-[3-methyl-5-(4-methylpiperazin-1-yl)anilino]-1,2,4-triazol-1-yl]benzonitrile]
  fold induction at 1 µM: 100 to 1000
  fold induction at 10 µM: 10 to 100

## CC(=O)N(C)C1CCN(c2cc(C)cc(Nc3ncn(-c4cc(F)cc(F)c4)n3)c2)C1 (stereo not drawn) [Compound 500, N-[1-[3-[[1-(3,5-difluorophenyl)-1,2,4-triazol-3-yl]amino]-5-methyl-phenyl]pyrrolidin-3-yl]-N-methyl-acetamide]
  fold induction at 1 µM: 100 to 1000
  fold induction at 10 µM: 1 to 10

## Cc1cc(Nc2ncn(-c3ccc(F)c(F)c3)n2)nc(N2CC(N3CCOCC3)C2)c1 [Compound 501, N-[1-(3,4-difluorophenyl)-1,2,4-triazol-3-yl]-4-methyl-6-(3-morpholinoazetidin-1-yl)pyridin-2-amine]
  fold induction at 1 µM: 1 to 10
  fold induction at 10 µM: ≤ 1

## Cc1cc(Nc2ncn(-c3ccccc3)n2)nc(N2CC(N3CCOCC3)C2)c1 [Compound 502, 4-methyl-6-(3-morpholinoazetidin-1-yl)-N-(1-phenyl-1,2,4-triazol-3-yl)pyridin-2-amine]
  fold induction at 1 µM: 1 to 10
  fold induction at 10 µM: ≤ 1

## Cc1cc(Nc2ncn(-c3ccccn3)n2)nc(N2CC(N3CCOCC3)C2)c1 [Compound 503, 4-methyl-6-(3-morpholinoazetidin-1-yl)-N-[1-(2-pyridyl)-1,2,4-triazol-3-yl]pyridin-2-amine]
  fold induction at 1 µM: 1 to 10
  fold induction at 10 µM: ≤ 1

## Cc1cc(Nc2ncn(-c3ccnc(F)c3)n2)nc(N2CC(N3CCOCC3)C2)c1 [Compound 504, N-[1-(2-fluoro-4-pyridyl)-1,2,4-triazol-3-yl]-4-methyl-6-(3-morpholinoazetidin-1-yl)pyridin-2-amine]
  fold induction at 1 µM: 10 to 100
  fold induction at 10 µM: 10 to 100

## CC(=O)OCC(C)(COC(C)=O)N1CCN(c2cc(C)cc(Nc3ncn(-c4cc(F)cc(F)c4)n3)c2)CC1 [Compound 505, [3-acetoxy-2-[4-[3-[[1-(3,5-difluorophenyl)-1,2,4-triazol-3-yl]amino]-5-methyl-phenyl]piperazin-1-yl]-2-methyl-propyl] acetate]
  fold induction at 1 µM: 10 to 100
  fold induction at 10 µM: ≤ 1

## Cc1cc(Nc2ncn(-c3cc(F)cc(F)c3)n2)cc(N2CC(C3COC3)C2)c1 [Compound 506, 1-(3,5-difluorophenyl)-N-[3-methyl-5-[3-(oxetan-3-yl)azetidin-1-yl]phenyl]-1,2,4-triazol-3-amine]
  fold induction at 1 µM: 100 to 1000
  fold induction at 10 µM: 1 to 10

## FC(F)(F)c1cc(Nc2ncn(-c3cnccn3)n2)cc(N2CCC(C3COC3)CC2)c1 [Compound 507, N-[3-[4-(oxetan-3-yl)-1-piperidyl]-5-(trifluoromethyl)phenyl]-1-pyrazin-2-yl-1,2,4-triazol-3-amine]
  fold induction at 1 µM: 10 to 100
  fold induction at 10 µM: 100 to 1000

## Cc1cc(Nc2ncn(-c3cc(F)cc(F)c3)n2)cc(N2CC3(CCO3)C2)c1 [Compound 508, 1-(3,5-difluorophenyl)-N-[3-methyl-5-(3-oxa-6-azaspiro[3.3]heptan-6-yl)phenyl]-1,2,4-triazol-3-amine]
  fold induction at 1 µM: 100 to 1000
  fold induction at 10 µM: 10 to 100

## Cc1cc(Nc2ncn(-c3cc(F)cc(F)c3)n2)cc(N2CCN(C(C)(C)C(=O)O)CC2)c1 [Compound 509, 2-[4-[3-[[1-(3,5-difluorophenyl)-1,2,4-triazol-3-yl]amino]-5-methyl-phenyl]piperazin-1-yl]-2-methyl-propanoic acid]
  fold induction at 1 µM: 100 to 1000
  fold induction at 10 µM: 100 to 1000

## Cc1cc(Nc2ncn(-c3cc(F)cc(F)c3)n2)cc(N2CC(N3CCCC3)C2)c1 [Compound 510, 1-(3,5-difluorophenyl)-N-[3-methyl-5-(3-pyrrolidin-1-ylazetidin-1-yl)phenyl]-1,2,4-triazol-3-amine]
  fold induction at 1 µM: 1 to 10
  fold induction at 10 µM: 10 to 100

## CC(C)c1cc(Nc2ncn(-c3ccncn3)n2)cc(N2CCN(C3COC3)CC2)c1 [Compound 511, N-[3-isopropyl-5-[4-(oxetan-3-yl)piperazin-1-yl]phenyl]-1-pyrimidin-4-yl-1,2,4-triazol-3-amine]
  fold induction at 1 µM: 100 to 1000
  fold induction at 10 µM: 100 to 1000

## FC(F)(F)c1cc(Nc2ncn(-c3cnccn3)n2)cc(N2CC3CC(C2)O3)c1 [Compound 513, N-[3-(6-oxa-3-azabicyclo[3.1.1]heptan-3-yl)-5-(trifluoromethyl)phenyl]-1-pyrazin-2-yl-1,2,4-triazol-3-amine]
  fold induction at 1 µM: 100 to 1000
  fold induction at 10 µM: 100 to 1000

## FC(F)(F)c1cc(Nc2ncn(-c3cnccn3)n2)cc(N2CCN(C3COC3)CC2)c1 [Compound 514, N-[3-[4-(oxetan-3-yl)piperazin-1-yl]-5-(trifluoromethyl)phenyl]-1-pyrazin-2-yl-1,2,4-triazol-3-amine]
  fold induction at 1 µM: 10 to 100
  fold induction at 10 µM: 100 to 1000

## Cc1cc(Nc2ncn(-c3cc(F)cc(F)c3)n2)cc(C2(F)CCN(C3COC3)CC2)c1 [Compound 515, 1-(3,5-difluorophenyl)-N-[3-[4-fluoro-1-(oxetan-3-yl)-4-piperidyl]-5-methyl-phenyl]-1,2,4-triazol-3-amine]
  fold induction at 1 µM: ≤ 1
  fold induction at 10 µM: 1 to 10
